What follows are molecules tested against T1, recombinant hRIPK2 protein (kinase domain aa 1-299-His-tagged) (Homo sapiens, UniProt O43353) (assay: RIPK2 AlphaLISA assay (displacement of bead-bound CZC-8004 from hRIPK2)). Details: recombinant hRIPK2 kinase domain 10 nM, 2 h at 23° C.
T1 construct: kinase domain aa 1-299-His-tagged; purchased Life Technologies PR7829A
T1 sequence (O43353 1-299): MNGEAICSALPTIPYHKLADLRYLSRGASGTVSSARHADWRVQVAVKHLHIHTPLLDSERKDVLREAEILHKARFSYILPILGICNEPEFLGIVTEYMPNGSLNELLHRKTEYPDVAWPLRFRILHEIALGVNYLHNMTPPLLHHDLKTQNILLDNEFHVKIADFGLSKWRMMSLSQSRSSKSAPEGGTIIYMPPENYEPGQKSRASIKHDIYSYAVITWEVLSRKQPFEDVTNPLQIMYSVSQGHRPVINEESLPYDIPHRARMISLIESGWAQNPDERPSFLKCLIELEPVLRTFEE
Format: binding
Source text: RIPK2 AlphaLISA® Assay (Amplified Luminescent Proximity Homogeneous Assay)
A non-specific kinase inhibitor (CZC-8004 Cayman #916603-07-1) bound to an acceptor bead (#6772001 PerkinElmer) was mixed to the recombinant hRIPK2 protein (kinase domain aa 1-299-His-tagged—Life Technologies PR7829A) and a Ni2+-tagged donor beads (#AS101D PerkinElmer). In the presence of an inhibitor, the compound beads displacement from hRIPK2 was followed by signal loss. In a 384-well ProxiPlate@ (Perkin Elmer, 6008280) add:
2 μL RIPK2 inhibitor (in DMSO 0.8%).
2 μL human recombinant RIPK2 (10 nM diluted in AlphaLISA buffer 1×).
4 μL Mix of […] 1/1000 in AlphaLISA buffer 1×.
Homogenize using a microtiter plate shaker and incubate for 2 h at 23° C.
Read using EnVision®-Alpha Reader (PerkinElmer) according to manufacturer specifications.
Work on CO[C@@H]1C[C@H]2COc3nc4c(cnn4cc3-c3cnn(C)c3C)-c3cc(F)cc(c3)NCCN2C1=O [Example 68] yielded an IC50 of less than 10 nM.
In the case of COCCO[C@@H]1C[C@H]2COc3nc4c(cnn4cc3OC)-c3cc(cc(OC(C)C)c3)NCCN2C1=O [Example 131, (12R,14S)-18-methoxy-12-(2-methoxyethoxy)-4-(propan-2-yloxy)-16-oxa-7,10,20,21,24-pentaazapentacyclo[15.5.2.1^2,6.0^10,^14.0^20,^23]pentacosa-1(23),2,4,6(25),17(24),18,21-heptaen-11-one], the IC50 is reported as less than 10 nM.
Molecule CO[C@@H]1CC2(C)COc3ccn4ncc(c4n3)-c3cc(F)cc(c3)NCCN2C1=O (stereo partly shown) [Example 40] has an IC50 of less than 10 nM.
Molecule [2H]C([2H])([2H])Oc1cc2cc(c1)-c1cnn3ccc(nc13)OC[C@@H]1C[C@@H](OC([2H])([2H])[2H])C(=O)N1CCN2 [Example 53, (12R,14S)-4,12-bis(^2H3)methoxy-16-oxa-7,10,20,21,24-pentaazapentacyclo[[15.5.2.1^2,6.0^10,^14.0^20,^23]pentacosa-1(23),2,4,6(25),17(24),18,21-heptaen-11-one] has an IC50 of less than 10 nM.
Molecule CCO[C@@H]1C[C@H]2COc3ccn4ncc(c4n3)-c3cc(cc(C(N)=O)c3)NCCN2C1=O [Example 60, (12R,14S)-12-ethoxy-11-oxo-16-oxa-7,10,20,21,24-pentaazapentacyclo[15.5.2.1^2,6.0^10,^14.0^20,^23]pentacosa-1(23),2(25),3,5,17(24),18,21-heptaene-4-carboxamide] has an IC50 of less than 10 nM.
Work on COCCO[C@@H]1C[C@H]2COc3ccn4ncc(c4n3)-c3cc(cc(OC(F)F)c3)NCCN2C1=O (racemic) [Example 111, (12R,14S)-4-(difluoromethoxy)-12-(2-methoxyethoxy)-16-oxa-7,10,20,21,24-pentaazapentacyclo[15.5.2.1^2,6.0^10,^14.0^20,^23]pentacosa-1(23),2(25),3,5,17(24),18,21-heptaen-11-one] yielded an IC50 of less than 10 nM.
CO[C@@H]1C[C@H]2COc3ccn4ncc(c4n3)-c3cc(cc(OCc4ccccc4)c3)NCCN2C1=O [Example 14, (12R, 14S)-4-(benzyloxy)-12-methoxy-16-oxa-7,10,20,21,24-pentaazapentacyclo[15.5.2.1^2,6.0^10,14.0^20,^23]pentacosa-1(23),2,4,6(25),17(24),18,21-heptaen-11-one] was tested, and the IC50 was 10 to 100 nM.
CO[C@@H]1C[C@H]2COc3nc4c(cnn4cc3C)-c3cc(Cl)cc(c3)NCCN2C1=O [Example 24, (12R,14S)-4-chloro-12-methoxy-18-methyl-16-oxa-7,10,20,21,24-pentaazapentacyclo[15.5.2.1^2,6.0^10,^14.0^20,^23]pentacosa-1(23),2(25),3,5,17(24),18,21-heptaen-11-one] was tested, and the IC50 was less than 10 nM.
With CO[C@@H]1C[C@H]2COc3ccn4ncc(c4n3)-c3cc(cc(-c4ncno4)c3)NCCN2C1=O [Example 109, (12R,14S)-12-methoxy-4-(1,2,4-oxadiazol-5-yl)-16-oxa-7,10,20,21,24-pentaazapentacyclo[15.5.2.1^2,6.0^1°,^14.0^2°,^23]pentacosa-1(23),2(25),3,5,17(24),18,21-heptaen-11-one] the IC50 was less than 10 nM.
Work on COc1cn2ncc3c2nc1OC[C@@H]1C[C@@H](OC)C(=O)N1CCNc1cc-3cc(C(F)(F)F)c1 [Example 2, (12R,14S)-12,18-dimethoxy-4-(trifluoromethyl)-16-oxa-7,10,20,21,24-pentaazapentacyclo[15.5.2.1^2,6.0^10,^14.0^20,^23]pentacosa-1(23),2(25),3,5,17(24),18,21-heptaen-11-one] yielded an IC50 of less than 10 nM.
In the case of COCCO[C@@H]1C[C@H]2COc3nc4c(cnn4cc3OCC3CC3)-c3cc(cc(OC)c3)NCCN2C1=O [Example 123, (12R,14S)-18-(cyclopropylmethoxy)-4-methoxy-12-(2-methoxyethoxy)-16-oxa-7,10,20,21,24-pentaazapentacyclo[15.5.2. 1^2,6.0^10,^14.0^20,^23]pentacosa-1(23),2(25),3,5,17(24),18,21-heptaen-11-one], the IC50 is reported as less than 10 nM.
COc1cc2cc(c1)-c1cnn3ccc(nc13)OC[C@@H]1C[C@@H](OC)C(=O)N1CCN2 [Example 5, (12R,14S)-4,12-d i methoxy-16-oxa-7,10,20,21,24-pentaazapentacyclo[15.5.2.1^2,6.0^10,^14.0^20,^23]pentacosa-1(23),2(25),3,5,17(24),18,21-heptaen-11-one] gave an IC50 of less than 10 nM.
COc1cc2cc(c1)-c1cnn3ccc(nc13)OC[C@@H]1C[C@@H](OC)C(=O)N1CC(C)N2 (single isomer, unassigned) [Example 106, (8R*,12R,14S)-4,12-dimethoxy-8-methyl-16-oxa-7,10,20,21,24-pentaazapentacyclo[15.5.2.1^2,6.0^1°,^14.0^2°,^23]pentacosa-1(23),2,4,6(25),17(24),18,21-heptaen-11-one] was tested, and the IC50 was 10 to 100 nM.
Molecule CO[C@@H]1C[C@H]2COc3nc4c(cnn4cc3C)-c3cc(cc(-n4cccn4)c3)NCCN2C1=O [Example 42, (12R,14S)-12-methoxy-18-methyl-4-(1H-pyrazol-1-yl)-16-oxa-7,10,20,21,24-pentaazapentacyclo[15.5.2.1^2,6.0^10,^14.0^20,^23]pentacosa-1(23),2(25),3,5,17(24),18,21-heptaen-11-one] has an IC50 of less than 10 nM.
CCO[C@@H]1C[C@H]2COc3ccn4ncc(c4n3)-c3cc(Cl)cc(c3)NCCN2C1=O [Example 20, (12R,14S)-4-chloro-12-ethoxy-16-oxa-7,10,20,21,24-pentaazapentacyclo[15.5.2.1^2,6.0^10,^14.0^20,^23]pentacosa-1(23),2,4,6(25),17(24),18,21-heptaen-11-one] was tested, and the IC50 was less than 10 nM.
In the case of CO[C@@H]1C[C@H]2COc3ccn4ncc(c4n3)-c3cc(C#N)cc(c3)NCCN2C1=O [Example 12, (12R,14S)-12-methoxy-11-oxo-16-oxa-7,10,20,21,24-pentaazapentacyclo[15.5.2.1^2,6.0^10,^14.0^20,23]pentacosa-1(23),2,4,6(25),17(24),18,21-heptaene-4-carbonitrile], the IC50 is reported as less than 10 nM.
In the case of COCCO[C@@H]1C[C@H]2COc3nc4c(cnn4cc3OC)-c3cc(O)cc(c3)NCCN2C1=O [Example 128, (12R,14S)-4-hydroxy-18-methoxy-12-(2-methoxyethoxy)-16-oxa-7,10,20,21,24-pentaazapentacyclo[15.5.2. 1^2,6.0^10,^14.0^20,^23]pentacosa-1(23),2,4,6(25),17(24),18,21-heptaen-11-one], the IC50 is reported as less than 10 nM.
Molecule COCC#Cc1cc2cc(c1)-c1cnn3ccc(nc13)OC[C@@H]1C[C@@H](OCCOC)C(=O)N1CCN2 [Example 100, (12R,14S)-12-(2-methoxyethoxy)-4-(3-methoxyprop-1-yn-1-yl)-16-oxa-7,10,20,21,24-pentaazapentacyclo[15.5.2.1^2,6.0^1°,^14.0^2°,^23]pentacosa-1(23),2(25),3,5,17(24),18,21-heptaen-11-one] has an IC50 of 10 to 100 nM.
In the case of CCOc1cc2cc(c1)-c1cnn3ccc(nc13)OC[C@@H]1C[C@@H](OC)C(=O)N1CCN2 [Example 7, (12R,14S)-4-ethoxy-12-methoxy-16-oxa-7,10,20,21,24-pentaazapentacyclo[15.5.2.1^2,6.0^10,^14.0^20,^23]pentacosa-1(23),2(25),3,5,17(24),18,21-heptaen-11-one], the IC50 is reported as less than 10 nM.
With CCO[C@@H]1C[C@@H]2COc3ccn4ncc(c4n3)-c3cc(cc(OC)c3)NCCN2C1=O [Example 87, (12R,14R)-12-ethoxy-4-methoxy-16-oxa-7,10,20,21,24-pentaazapentacyclo[15.5.2.1^2,6.0^10,^14.0^20,^23]pentacosa-1(23),2,4,6(25),17(24),18,21-heptaen-11-one] the IC50 was 100 to 11000 nM.
Molecule COCCO[C@@H]1C[C@H]2COc3nc4c(cnn4cc3C)-c3cc(cc(OC)c3)NCCN2C1=O [Example 115, (12R, 14S)-4-methoxy-12-(2-16-oxa-7,10,20,21,24-pentaazapentacyclo[15.5.2. 1^2,6.0^10,^14.0^20,^23]pentacosa-1(23),2,4,6(25),17(24),18, 21-heptaen-11-one] has an IC50 of less than 10 nM.
CCO[C@@H]1C[C@H]2COc3ccn4ncc(c4n3)-c3cc(cc(OC)c3)NCCN2C1=O [Example 6, (12R,14S)-12-ethoxy-4-methoxy-16-oxa-7,10,20,21,24-pentaazapentacyclo[15.5.2.1^2,6.0^10,^14.0^20,^23]pentacosa-1(23),2,4,6(25),17(24),18,21-heptaen-11-one] was tested, and the IC50 was less than 10 nM.
In the case of CO[C@@H]1C[C@H]2COc3nc4c(cnn4cc3C)-c3cc(cc(OCc4cccnc4)c3)NCCN2C1=O [Example 49, (12R,14S)-12-methoxy-18-methyl-4-(pyridin-3-ylmethoxy)-16-oxa-7,10,20,21,24-pentaazapentacyclo[15.5.2.1^2,6.0^10,^14.0^20,^23]pentacosa-1(23),2,4,6(25),17(24),18,21-heptaen-11-one], the IC50 is reported as 10 to 100 nM.
CO[C@@H]1C[C@H]2COc3ccn4ncc(c4n3)-c3cc(cc(OCc4cccnc4)c3)NCCN2C1=O [Example 44, (12R,14S)-12-methoxy-4-(pyridin-3-ylmethoxy)-16-oxa-7,10,20,21,24-pentaazapentacyclo[15.5.2.1^2,6.0^1°,^14.0^2°,^23]pentacosa-1 (23),2(25),3,5,17(24),18,21-heptaen-11-one] was tested, and the IC50 was 10 to 100 nM.
CO[C@@H]1C[C@H]2COc3ccn4ncc(c4n3)-c3cc(cc(-c4cnn(CCO)c4)c3)NCCN2C1=O [Example 93, (12R,14S)-4-[1-(2-hydroxyethyl)-1H-pyrazol-4-yl]-12-methoxy-16-oxa-7,10,20,21,24-pentaazapentacyclo[15.5.2.1^2,6.0^1°,^14.0^2°,^23]pentacosa-1(23),2,4,6(25),17(24),18,21-heptaen-11-one] gave an IC50 of 100 to 11000 nM.
